Each structure is given as a SMILES string. Entries after “also recorded” stand apart in the source; their conditions may differ.

What all share (format): in vivo, mouse
In series [1] the test system is ApoE-deficient mice. In words: NMR metabolomics of liver and kidney extracts. Conditions: 30 mg/kg/day, vs control. The source says: (§1) Four cohorts of mice were used in these studies (FIGS. 8A and 9A). Cohorts 1 and 2 were devoted to the in vivo and ex vivo characterization of TNAP-associated plaque calcification. 6-week-old ApoE-deficient male mice were received at the animal facility and placed in conventional cages with 5 mice per cage. Mice were maintained on a 12-hrs light-dark cycle (7:00 am-7:00 pm) and were supplied with food and water ad libitum. From 10 weeks of age, they were fed ad libitum with a high fat diet (HFD, D12108C, Research Diets, New Brunswick, USA) containing 40% fat (kcal) and 1.25% cholesterol (weight). In cohort 1, 8 mice were sacrificed every 2 weeks between weeks 17 to 31, for histological and molecular analyses. Total body weight was measured weekly after starting the HFD. The sacrifice was done after anesthesia with isoflurane and intracardiac blood puncture by CO2 inhalation. Tissues were harvested as described below. The abdominal aorta was used for quantitative polymerase chain reaction (PCR) analyses. Mice from cohort 2 were used to analyze aorta calcification with ^18F—NaF μPET and μCT and to compare the in vivo data with the ex vivo results obtained in cohort 1. Animals were transferred from the animal facility to the Cermep imaging platform. Cohorts 3 and 4 were used to determine in vivo and ex vivo the impact of TNAP inhibition on the vasculature, liver, bones, and kidneys. […] Plaque calcification was analyzed at 25 weeks, and possible side effects of TNAP inhibition were explored in mice aged 31 weeks. […]
Liver and kidney extraction and NMR measurement: The frozen tissues were weighed and then extracted using the methanol-chloroform-water system [2:2:1.425 (v/v/v)]. […] Deuterated phosphate buffer at pH=7.4 (200 mM) was added to the dried aqueous extract with sodium 2,2,3,3-tetradeutero-3-trimethylsilylpropionate (TSP) (Sigma-Aldrich) as internal chemical shift and quantification reference. ^1H NMR spectra were recorded at 298 K on a Bruker Avance spectrometer 500 equipped with a 5-mm TCI cryoprobe. […]

Series [2] relates to ApoE-deficient mice. Kind of series: Bone architecture by micro-CT of the femur. Conditions: 30 mg/kg/day, treatment up to 21 weeks (31 weeks of age).
From the text: as §1, with “platform.” for “platform. Cohorts 3 and 4 were used to determine in vivo and ex vivo the impact of TNAP inhibition on the vasculature, liver, bones, and kidneys.”

Series [3] has as its system ApoE-deficient mice. In words: Serum analyses (cholesterol, triglycerides, bile acids, IL-6, haptoglobin, glucose, LPS). From the text: (§2) Four cohorts of mice were used in these studies (FIGS. 8A and 9A). Cohorts 1 and 2 were devoted to the in vivo and ex vivo characterization of TNAP-associated plaque calcification. 6-week-old ApoE-deficient male mice were received at the animal facility and placed in conventional cages with 5 mice per cage. Mice were maintained on a 12-hrs light-dark cycle (7:00 am-7:00 pm) and were supplied with food and water ad libitum. From 10 weeks of age, they were fed ad libitum with a high fat diet (HFD, D12108C, Research Diets, New Brunswick, USA) containing 40% fat (kcal) and 1.25% cholesterol (weight). In cohort 1, 8 mice were sacrificed every 2 weeks between weeks 17 to 31, for histological and molecular analyses. Total body weight was measured weekly after starting the HFD. The sacrifice was done after anesthesia with isoflurane and intracardiac blood puncture by CO2 inhalation. Tissues were harvested as described below. The abdominal aorta was used for quantitative polymerase chain reaction (PCR) analyses. Mice from cohort 2 were used to analyze aorta calcification with ^18F—NaF μPET and μCT and to compare the in vivo data with the ex vivo results obtained in cohort 1. Animals were transferred from the animal facility to the Cermep imaging platform. Cohorts 3 and 4 were used to determine in vivo and ex vivo the impact of TNAP inhibition on the vasculature, liver, bones, and kidneys. According to the results obtained in cohorts 1 and 2, TNAP inhibitor SBI-425 (30 mg/kg/day, formulated as a food admixture in the HFD) was administered in a preventive manner from 10 weeks of age. Treatment was stopped at 25 weeks or 31 weeks of age. Plaque calcification was analyzed at 25 weeks, and possible side effects of TNAP inhibition were explored in mice aged 31 weeks. Mice in cohort 3 (2 groups of 13 mice) were used for ex vivo analysis, and mice in cohort 4 (2 groups of 12 mice) for in vivo imaging and ex vivo analyses.
After overnight fasting, blood was collected from mice by cardiac puncture under anesthesia with isoflurane. Serum was obtained through centrifugation of the blood for 15 min at 1,500 g at 4° C. and stored at −80° C. before analysis. Concentration of total cholesterol and triglycerides were measured using a colorimetric (MAK043, Sigma) and a fluorimetric assay (MAK266, Sigma), respectively. Total bile acids were assayed with a commercial enzyme-based colorimetric kit (Abcam Ab239702). Serum IL-6 and haptoglobin levels were determined using the commercially available ELISA kits (Fischer Scientific 10110623 and Abcam 157714, respectively). The alkaline phosphatase activity assay was performed in a 96-well plate. Briefly, sera were mixed with a concentrated buffer at a ratio of 2.85:1 (vol/vol) in order to get final concentration of 0.56 M 2-amino-2-methyl-1-propanol buffer pH 10.5, 1 mM MgCl2 and 10 mM p-nitrophenylphosphate. Absorbance was acquired for 5 min at 405 nm (Tecan plate reader). The slope was calculated to determine TNAP activity levels in each sample and normalized to protein amounts measured with the BCA protein assay (Pierce).

In series [4] the test system is ApoE-deficient mice. Kind of series: Quantitative PCR of transcript levels in the abdominal aorta. As to conditions: 30 mg/kg/day, 25 weeks, vs control.
From the text: as §2
Mouse tissues: total RNAs were extracted from grinded abdominal aorta with the NucleoSpin RNA II kit (Macherey-Nagel) following the manufacturers' protocol. The quantity and quality of RNA were determined using a NanoDrop. RNA (1 μg) was retro-transcribed into cDNA with Superscript II reverse transcriptase (Life Technologies). PCR analysis was conducted using SYBR green Supermix (Biorad) on the iCycler Real-Time Detection system (Biorad). Fold change in mRNA expression was calculated using the 2^−Δcq method by the CFX Manager software (Biorad). Data were normalized by 3 housekeeping genes (HPRT, Actin and Rpl13a) levels.

Setting [5] is: ApoE-deficient mice, 30 mg/kg/day, 25 weeks, fasting, vs control.
Setting [6] is: ApoE-deficient mice, 30 mg/kg/day, 25 weeks, vs control.

For `COc1ccc(Cl)cc1S(=O)(=O)Nc1cncc(C(N)=O)c1` [SBI-425], in the series with ApoE-deficient mice [1] (25 weeks), the kidney phosphocholine levels entry was “increased” and the liver phosphocholine levels entry is on record as “decreased; also recorded: variations close to significance”. The “liver or kidney metabolism (metabolomics, PLS-DA)” value in the series on ApoE-deficient mice [1] is “did not evidence a significant impact; also recorded: did not significantly change”. For the same compound, in the series on ApoE-deficient mice [2], the bone architecture entry is recorded as “no effect; also recorded: did not significantly change”. In the series on ApoE-deficient mice [3] (setting [5]), the “serum levels of cholesterol” value is listed as “significantly decreased” and the “serum levels of triglycerides (TGs)” value was “significantly decreased”. Moreover, in the series with ApoE-deficient mice [3] (setting [6]), the fasting glycemia result was “did not modulate”; the “serum IL-6 levels” value is “reduced serum IL-6 levels, although not significantly”; the “serum bile acids levels” value was “did not change”; the serum haptoglobin levels result is listed as “nor changed”. The systemic inflammation result in the series on ApoE-deficient mice [3] (mouse experiments, administration for several months) is on record as “did not significantly change”. Also, in the series with ApoE-deficient mice [4], the “Acan transcript level (chondrocyte marker), abdominal aorta” value is “not accompanied by reduced levels”; the “Alpl transcript level (chondrocyte marker), abdominal aorta” value was “not accompanied by reduced levels”; the “Cd68 transcript level (inflammatory marker), abdominal aorta” value was “significantly decreased”; the “Il6 transcript level (inflammatory marker), abdominal aorta” value is recorded as “significantly decreased”. In the series on ApoE-deficient mice [4], the “Il8 transcript level (inflammatory marker), abdominal aorta” value is “significantly decreased”; the “Opn transcript level (inflammatory marker), abdominal aorta” value is listed as “significantly decreased”; the “Rankl transcript level (inflammatory marker), abdominal aorta” value is recorded as “significantly decreased”; the “Runx2 transcript level (chondrocyte marker), abdominal aorta” value is “not accompanied by reduced levels”. For the same compound, the “Sox9 transcript level (chondrocyte marker), abdominal aorta” value with ApoE-deficient mice [4] was “not accompanied by reduced levels”.

(Values after US20230149374A1, “METHODS AND COMPOSITIONS FOR TREATING ATHEROSCLEROSIS” (Sanford Burnham Prebys Medical Discovery Institute, priority 2021, published 2023).)
